# Assays:
# HT29 cells = test: IL-1β-induced IL-8 release in HT29 cells (assay d); assay type: cell-based; conditions: Homo sapiens, HT-29; IL-1β-stimulated HT29 cells; read-out: IC50 Values for Inhibition of Cytokine Release, HT29 cells IL-8
# Protocol: HT29 cells, a human colon adenocarcinoma cell line, are plated in a 96 well plate (24 hrs) and pre-treated with compounds at the desired concentration for 2 hours before addition of 5 ng/mL of IL-1β (Abcam) for 24 hours. Supernatants are harvested for IL-8 quantification by Sandwich ELISA (Duo-set, R&D System). The IC50 is determined from the dose response curve.
# [1] = biological target: p38 MAPKα isoform (MAPK14) (Homo sapiens (Human), UniProt Q16539); test: p38 MAPKα enzyme inhibition (FRET, Z-LYTE, Method 2); assay type: biochemical
# In short: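 Z-LYTE FRET: p38 MAPKα (80 ng/mL for Method 1, 200 ng/mL for Method 2, pre-dilution) preincubated 2 hr RT with compound (4–0.004 μg/mL solutions), activity read via MAPKAP-K2 phosphorylation after 1 hr RT and 1 hr protease development. Coumarin/fluorescein ratio gives phosphorylation; % inhibition versus uninhibited control, IC50 from concentration-response curve.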
# PBMCs = test: Cell mitosis assay in PBMCs (assay g); assay type: cell-based; conditions: Homo sapiens, PBMC, test compound 5 μg/mL
# In short: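 Metaphase arrest with 0.1 μg/mL demecolcine during the final 2 hr of a 20 hr compound exposure, which follows 48 hr of 2% PHA stimulation of healthy-donor human PBMCs. Mitotic lymphocytes counted by flow cytometry (anti-phospho-histone 3 plus propidium iodide). Inhibition expressed relative to 0.5% DMSO.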
# Lck = Lck (Homo sapiens (Human), UniProt P06239); test: KINOMEscan enzyme binding assay (Lck); conditions: KINOMEscan technology; read-out: Dissociation Constant, Lck
# Protocol: (§1) Kinase enzyme binding activities of compounds disclosed herein may be determined using a proprietary assay which measures active site-directed competition binding to an immobilized ligand (Fabian, M. A. et al., Nature Biotechnol., 2005, 23:329-336). These assays may be conducted by DiscoverX (formerly Ambit; San Diego, Calif.). The percentage inhibition produced by incubation with a test compound may be calculated relative to the non-inhibited control.
# p38 MAPK α = p38 MAPK α (Homo sapiens (Human), UniProt Q16539); test: KINOMEscan enzyme binding assay (p38 MAPKα); conditions: KINOMEscan technology; read-out: Dissociation Constant, p38 MAPK α
# Protocol: as §1
# TNBS-induced colitis = TNBS-induced colitis in mice (in vivo assay iv); design: species or system BDF1 mice; TNBS Ulcer grade / TNBS LP inflammation: scale not given here; conditions: SMEDDS vehicle
# Protocol: Non-fasted, 10-12 week old, male BDF1 mice are dosed by oral gavage twice daily with either vehicle (5 mL/kg), reference item (Budesonide 2.5 mg/kg) or test compound (1 or 5 mg/kg) one day before (Day −1) stimulation of the inflammatory response by treatment with 2,4,6-trinitrobenzenesulphonic acid (TNBS) (15 mg/mL in 50% ethanol/50% saline). On Day 0 of the study TNBS (200 μL) is administered intra-colonically via a plastic catheter with BID dosing of the vehicle, reference or test compound continuing for 2 or 4 days. During the study animals are weighed every day and stool observations are made and recorded as a score, based on stool consistency. At the time of sacrifice on Day 2 (or Day 4) the large intestine is removed and the length and weight recorded. Sections of the colon are taken for histopathology scoring to determine disease severity.
# [2] = mice, 5 mg/kg orally, conducted over 2 days, histopathology
# Chain of Lck (P06239 whole entry): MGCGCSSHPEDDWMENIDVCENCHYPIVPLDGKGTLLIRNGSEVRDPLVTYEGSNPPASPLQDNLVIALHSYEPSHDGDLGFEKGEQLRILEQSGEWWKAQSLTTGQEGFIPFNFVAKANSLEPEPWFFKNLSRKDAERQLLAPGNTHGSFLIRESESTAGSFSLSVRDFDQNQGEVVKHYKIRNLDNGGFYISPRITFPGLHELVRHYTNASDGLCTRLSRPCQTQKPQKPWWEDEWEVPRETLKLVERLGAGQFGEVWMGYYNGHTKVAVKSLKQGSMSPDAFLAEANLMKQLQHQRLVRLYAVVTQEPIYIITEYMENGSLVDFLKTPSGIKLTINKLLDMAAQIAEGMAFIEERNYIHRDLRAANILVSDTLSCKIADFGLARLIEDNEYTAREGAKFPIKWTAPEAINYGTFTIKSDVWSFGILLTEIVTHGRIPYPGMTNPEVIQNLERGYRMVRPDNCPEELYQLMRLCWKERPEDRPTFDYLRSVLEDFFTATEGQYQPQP
# Chain of p38 MAPK α (Q16539 whole entry): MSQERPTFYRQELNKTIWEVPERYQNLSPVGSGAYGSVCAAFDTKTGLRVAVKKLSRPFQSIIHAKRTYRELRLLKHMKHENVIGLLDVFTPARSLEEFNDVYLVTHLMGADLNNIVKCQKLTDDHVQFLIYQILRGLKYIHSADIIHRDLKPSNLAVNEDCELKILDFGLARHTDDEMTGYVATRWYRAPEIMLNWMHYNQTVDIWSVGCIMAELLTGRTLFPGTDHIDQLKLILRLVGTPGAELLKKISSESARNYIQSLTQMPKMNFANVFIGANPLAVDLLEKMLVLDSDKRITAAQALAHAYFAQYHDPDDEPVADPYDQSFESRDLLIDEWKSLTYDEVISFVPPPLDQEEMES
# Chain of p38 MAPKα isoform (MAPK14) (Q16539 whole entry, canonical isoform): as the sequence (Q16539 whole entry) above
SMILES,IC50 (HT29 cells) [nM],IC50 [1] [nM],inhibition at 5 µg/mL (PBMCs) [%],Kd (Lck) [nM],Kd (p38 MAPK α) [nM],Activity in in vivo model of colonic inflammation (histopathology analysis) (TNBS-induced colitis; TNBS colitis over 2 days),Inflammatory cell infiltrate in the reticular and laminar propria zone (TNBS-induced colitis; TNBS colitis over 2 days),"Ulcer grade and epithelial repair compared to the vehicle control (TNBS-induced colitis; dosed orally at 5 mg/kg, 2 days)",TNBS LP inflammation (TNBS-induced colitis; [2]),TNBS Ulcer grade (TNBS-induced colitis; [2])
"COc1c(NC(=O)Nc2ccc(Oc3ccnc(Nc4ccccc4)c3)c3ccccc23)cc(C(C)(C)C)cc1[S+](C)[O-] (racemic) [Example 12, 1-(5-(tert-Butyl)-2-methoxy-3-(methylsulfinyl)phenyl)-3-(4-((2-(phenylamino)pyridin-4-yl)oxy)naphthalen-1-yl)urea]",8.6,193,23.2,3.6,11,,,,,
"COCCOCCOCCOc1cc(Nc2cc(Oc3ccc(NC(=O)Nc4cc(C(C)(C)C)cc(S(C)(=O)=O)c4OC)c4ccccc34)ccn2)cc(OC)c1 [Example 9, 1-(5-(tert-Butyl)-2-methoxy-3-(methylsulfonyl)phenyl)-3-(4-((2-((3-methoxy-5-(2-(2-(2-methoxyethoxy)ethoxy)ethoxy)phenyl)amino)pyridin-4-yl)oxy)naphthalen-1-yl)urea]",4.3,290,50.8,8.6,26,significant activity,marked reductions,marked improvements,2.9 ± 0.3,3.6 ± 0.3

# — patent US9890185B2, “Urea derivatives useful as kinase inhibitors” (Respivert Limited, priority 2013, dated 2018)
